The values that follow are results of earlier work, collected in US11577212B2, “Stimuli-responsive micro-reservoirs for release of encapsulants” (priority 2018, dated 2023).

`COCCOC` [1,2-dimethoxy-ethane (glyme, DME), 1,2-dimethoxy-ethane]: the solubility in water entry is listed as “Miscible”.
With `CCOC(C)=O` [ethyl acetate], the solubility in water is given as 8.7 g/100 g.
`C1CCCCC1` [cyclohexane]: the solubility in water is 0.0055 g/100 g.
As to `Clc1ccccc1` [chlorobenzene], the solubility in water was 0.05 g/100 g.
For the molecule `COCCOCCOC` [diethylene glycol dimethyl ether], the solubility in water entry is listed as “Miscible”.
As to `CN(C)P(N(C)C)N(C)C` [Hexamethylphosphorous triamide (HMPT), Hexamethylphosphorous triamide], the solubility in water result is reported as “Miscible”.
On to `CCCCC` [pentane], for which the solubility in water is listed as 0.04 g/100 g.
In the case of `CCCCCC` [hexane], the solubility in water is given as 0.0014 g/100 g.
For the molecule `CCO` [ethanol], the solubility in water entry is listed as “Miscible”.
Regarding `OCC(O)CO` [glycerin], the solubility in water entry is listed as “Miscible”.
